Measured values from patent publication US7691601B2, “Medium for detecting and/or identifying of microorganisms” (priority 2003, dated 2010).

Tests used:
[1] = tested on: free α-glucosidase in a sample (stools); test: Coloration at the point of deposit of the stool, castanospermine medium; format: biochemical; parameters: key to Deposit coloration: 0=no coloration; 0.5=trace of coloration; 1=weak coloration; 2=strong coloration; conditions: for Deposit coloration: Table 6
Protocol: (§1) Seeding of Salmonella bacteria: 10 μl of stools are deposited onto a Petri dish, this stool suspension is mixed or not mixed with 10 μl of a suspension of Salmonella (0.5 McF) and isolated as 3 dials on a Petri dish. Various […] and various Salmonella strains originating from the applicant's collection are used according to this protocol. The Petri dishes are incubated at 37° C. for 24 hours. The appearance of a coloration at the point of deposit of the stool (“deposit” column) and at the Salmonella colony (“colony” column) is read according to a semi-quantitative scale: • 0=no coloration • 0.5=trace of coloration • 1=weak coloration • 2=strong coloration The results obtained are given in Table 1.
(§2) Preparation of the detection medium: 250 ml of the medium of Example 1, in which the O,O-diethyl p-nitrophenyl phosphate is replaced with various concentrations of castanospermine: 0, 1, 2, 4 and 8 g/l, are prepared according to the method of Example 1.
(§3) The various detection media thus obtained are poured into Petri dishes.
(§4) Seeding of Staphylococcus aureus strains: The Petri dishes are inoculated, incubated and read as in Example 1.

[2] = tested on: Staphylococcus aureus strains; test: Coloration of Staphylococcus aureus colonies, castanospermine medium; format: cell-based; parameters: key to Colonies coloration: 0=no coloration; 0.5=trace of coloration; 1=weak coloration; 2=strong coloration; conditions: for Colonies coloration: Table 6
Protocol: as §1, §2, §3, §4

[3] = Colonies column read for stool without added strain, castanospermine medium; parameters: key: 0=no coloration; 0.5=trace of coloration; 1=weak coloration; 2=strong coloration; conditions: Table 6, no strain
Protocol: as §1, §2, §3, §4

[4] = 1 g/l, stool A, Staphylococcus aureus No. 1
[5] = 1 g/l, stool B, Staphylococcus aureus no 2
[6] = 2 g/l, stool A, Staphylococcus aureus No. 1
[7] = 2 g/l, stool B, Staphylococcus aureus no 2
[8] = 4 g/l, stool A, Staphylococcus aureus No. 1
[9] = 4 g/l, stool B, Staphylococcus aureus no 2
[10] = 8 g/l, stool A, Staphylococcus aureus No. 1
[11] = 8 g/l, stool B, Staphylococcus aureus no 2

castanospermine
2: Deposit coloration [1, 4] | Deposit coloration [1, 5] | Colonies coloration [2, 4] | Colonies coloration [2, 5] | Colonies coloration [2, 6] | Colonies coloration [2, 7] | Colonies coloration [2, 8] | Colonies coloration [2, 9]
not inhibited: Enzymes originating from the bacteria ([2]; Staphylococcus aureus colonies, summary in words)
1: Deposit coloration ([1]; 1 g/l, stool A, no strain) | Deposit coloration [1, 6] | Deposit coloration ([1]; 2 g/l, stool A, no strain) | Deposit coloration [1, 7] | Deposit coloration [1, 8] | Deposit coloration [1, 10] | Colonies coloration [2, 10] | Colonies coloration [2, 11]
greatly inhibited: Aspecific enzymatic reactions due to the presence of free enzymes ([1]; stools, Staphylococcus aureus identification, summary in words)
0.5: Deposit coloration ([1]; 1 g/l, stool B, no strain) | Deposit coloration ([1]; 2 g/l, stool B, no strain) | Deposit coloration ([1]; 4 g/l, stool A, no strain) | Deposit coloration [1, 9]
0: Deposit coloration ([1]; 4 g/l, stool B, no strain) | Deposit coloration ([1]; 8 g/l, stool A, no strain) | Deposit coloration [1, 11] | Deposit coloration ([1]; 8 g/l, stool B, no strain) | Colonies coloration ([3]; 1 g/l, stool A) | Colonies coloration ([3]; 1 g/l, stool B) | Colonies coloration ([3]; 2 g/l, stool A) | Colonies coloration ([3]; 2 g/l, stool B) | Colonies coloration ([3]; 4 g/l, stool A) | Colonies coloration ([3]; 4 g/l, stool B) | Colonies coloration ([3]; 8 g/l, stool A) | Colonies coloration ([3]; 8 g/l, stool B)
